Test results taken from patent publication US20240108739A1, “OLIGOMERIC COMPOUNDS BINDING SPECIFICALLY TO PROTEOGLYCANS” (PHI PHARMA SA, priority 2020, published 2024).
Blank lines part the entries; values can stand above or below the compound they belong to. Starred links: 1 amine or outer side, 2 acyl side, 3 side chain; linkers in the order of their positions; H or OH if unused. Positions of bridges follow the written chain, without caps; N, C: chain ends. Non-standard residues stand in square brackets, D forms with d. Residues, ends and D or L forms follow the SMILES beside them. Chains are numbered I, II in the order given. No end group written: not given here. ξ: configuration not given here. *: point of attachment. X1 = CC1(C)C(/C=C/C(=C/C=C2\N(CCCS(=O)(=O)O)c3ccc(S(=O)(=O)O)cc3C2(C)C)c2cccc(CCC(=O)NCCN3C(=O)CC(*)C3=O)c2)=Nc2c1cc(Cl)c[n+]2CCCS(=O)(=O)[O-]; X3 = N=c1ccc2c(-c3ccc(C(=O)NCCCCCN4C(=O)CC(*)C4=O)cc3C(=O)O)c3ccc(N)c(S(=O)(=O)O)c3oc-2c1S(=O)(=O)O; X2 = O=C(CCCCCN1C(=O)CC(*)C1=O)NNC(=O)CCCCC1SC[C@H]2NC(=O)N[C@@H]12; NH(CH2CH2O)5CH2CO = O=C(COCCOCCOCCOCCOCCN[*:1])[*:2]; ξIle = CC[C@H](C)C(N)C(=O)O; Orn = NCCC[C@H](N)C(=O)O; AEA = NCCOCC(=O)O

Tests used:
[1] = test system: CHO-pgsA-745 cells (GAG-deficient mutant); assay: Flow cytometry binding of biotinylated compounds to CHO cells (Example 3); format: cell-based; settings: 30 min at 4 °C, streptavidin-680RD fluorescence; FIG. 3B
Description: (§1) Cell lines in exponential growth phase were cultured in complete culture medium with 10% FBS and grown in 75 cm^2 cell culture flasks. On the day of the experiment, cells were harvested and transferred in V-bottom culture plates, washed with PBS 1× supplemented with BSA 3% and then incubated with (51-hS)2KC-Mal-Biotin, (51-hS)2KS-(51-hS)KC-Mal-Biotin, [(51-hS)2KS]2KK(Biotin) and VAR2-Biotin for 30 min at 4° C. in PBS 1× supplemented with BSA 3% (and eventually PEG600 2%) at various dilutions (serial dilutions).
(§2) After the incubation, cells were washed in PBS 1× supplemented with BSA 3%. For visualization, cells were incubated for 15 min at 4° C. with streptavidin coupled to 680RD fluorochrome. After the incubation, cells were washed in PBS 1× supplemented with 3% BSA and then incubated for at least 15 min at 4° C. with 4′,6-diamidino-2-phenylindole (DAPI) (Thermo Fisher Scientific) in order to exclude dead cells. Samples were directly applied to a flow cytometer. Data generated on the flow cytometer was analyzed using Flowjo™ 10.6.0.

[2] = test system: CHO-K1 cells (wild type, GAG present); assay: as above; format: cell-based; settings: 30 min at 4 °C, streptavidin-680RD fluorescence; FIG. 3A
Description: as §1, §2

[3] = background statement; cited from earlier work
HCT 116 tumor xenograft = assay: In vivo biodistribution by Optical Imaging in HCT 116 xenografted mice (Example 9); parameters: species or system athymic nude mice
Description: For this purpose, HCT 116 cells were subcutaneously inoculated into the shoulder of athymic nude mice, and then the fluorescently-labelled compound was administered intravenously.
Optical Imaging was used to evaluate fluorescent signals in mice 0.5, 1, 3, 8, 24, and 72 hours after the administration of [(51-hS)2KS]2KC-Mal-680RD at 3 different concentrations. Flow cytometry was also used to evaluate the tumor target expression in xenografted mice.
HCT-116 cells were grown in McCoy's 5a medium supplemented with 10% foetal bovine serum, 100 IU/mL penicillin and 100 μg/mL streptomycin. The trypan-blue exclusion test was used to assess cell viability before cells inoculation. An aliquot (10 μL) of cell suspension was mixed with an equal amount of 0.4% trypan blue solution in PBS. 10 μL of the final solution was introduced in a counting chamber (hemocytometer). Viable cells appear round and bright, while damaged cells appear deep blue because of the incorporation of the trypan dye. Cell viability was expressed as % of viable cells over total cells). Cell cultures with viability of less than 70% were discarded.
HCT 116 cells were collected and washed two times with PBS. One million of HCT 116 cells were suspended in 1:1 Matrigel™: McCoy's 5a (total volume 0.15 mL) and then injected subcutaneously into the shoulder of each female mouse of groups A, B, C.
Animals were randomly assigned to the following experimental groups, Table 12.
All animals were dosed once according to Table 12 when the tumors reached approximately 500-600 mm^3. The solutions were injected intravenously via the tail vein at the administration volume of 100 μL. After each injection the tail vein was flushed with 100 μL of sterile saline solution. All animals were individually inspected before the treatment and 0.5, 1, 3, 8, 24, and 72 hours after treatment.
Clinical signs of the animals, such as posture, movement, breath, external body appearance, and any other relevant clinical sign were recorded. Mice of groups A, B, and C were anesthetized under 3-4% Sevoflurane gas anaesthesia (O2 95.0%) and imaged 0.5, 1, 3, 8, 24, and 72 hours post treatments. Mice were irradiated with filtered light of wavelength 675 nm and an image of emission light intensity was collected at 720 nm wavelength. Field of View, fstop, Binning and Exposition Time were determined during experimental setting. Regions of interest (ROIs) were selected by an operator over the acquired supine, dorsal, and side views. The signal intensity within the ROIs was determined automatically by the software. At the end of the experiment the mice were sacrificed and tumors were excised to measure ex vivo the fluorescent signal intensity.

[4] = test system: HCT-116 cells (colon carcinoma); assay: Internalization in adherent cells, Trypan Blue quenching flow cytometry (Example 6); format: cell-based; settings: 200 nM, 37 °C, FIG. 8
Description: Adherent cell lines in exponential growth phase were cultured in complete culture medium with 10% FBS and grown in flat-bottom culture plates. On the day of the experiment, cells were washed with culture medium supplemented with 3% BSA (Sigma-Aldrich) and then incubated with peptides coupled with A488 fluorochrome for various timepoints (from 5 to 160 min) at a single concentration or at various dilutions (serial dilutions) at a determined timepoint at 37° C. in the corresponding culture medium supplemented with 3% BSA. After the incubation, cells were washed in PBS 1× and detached using trypsin. Following trypsinization, cells were washed in PBS 1× supplemented with 3% BSA and then incubated for at least 15 min at 4° C. with DAPI (Thermo Fisher Scientific) in order to exclude dead cells. Right before acquisition on a flow cytometer, samples were divided in two. The first series of samples was acquired directly on a flow cytometer whereas the second series was supplemented with Trypan Blue in order to observe the internal fluorescence only. The percentage of internalization was further determined.
Fluorescence geometric mean of samples is standardised by subtracting fluorescence geometric mean of negative control (no compound) and the addition of 1.

[5] = test system: chondroitin-4-sulfate (C4S); assay: ELISA binding to purified GAGs (Example 1); settings: SAV-HRP/TMB absorbance 450 nm, binding at pH 6.4 for 1 hour at 37 °C, FIG. 1
Description: (§3) ELISA plates were coated with various purified GAGs (Sigma, AMBIO) in PBS pH 7.4 for 2 hours at 37° C. Plates were blocked overnight at 4° C. with 200 μl of PBS pH 7.4, Tween 0.05%+BSA 3%+PEG400 2%, then washed twice with fresh buffer TSCM pH 6.4 ((Tris 20 mM, NaCl 150 mM, BSA 1%, Tween 0.05%, 2 mM MgCl2, 2 mM CaCl2). Binding of the different peptides at serial dilution was conducted in TSCMP (TSCM+2% (w/v) PEG 600) pH 6.4 for 1 hour at 37° C. (100 ul per well). Plates were washed three times with fresh TSCM pH 6.4 (200 ul per well) and SAV-HRP was added at a dilution of 1/8000 (100 ul per well) for 20 min at room temperature. Following 3 washes with PBS pH 7.4, 3,3′,5,5′-tetramethylbenzidine (TMB) substrate was added for 10 min (100 ul per well), protected from light. The reaction was stopped by addition of 100 μl of 1 M H2SO4 and the absorbance at 450 nm was measured.
(§4) The GAGs tested in this example were: C4Str: chondroitin-4-sulfate(tracheal); C4Sns: chondroitin-4-sulfate (nasal); CSPG: chondroitin sulfate proteoglycan; C6S: chondroitin-6-sulfate; HA: hyaluronic acid; HEP: heparin; HS: heparan sulfate; DS: dermatan sulfate; PBS: PBS negative control.

[6] = test system: chondroitin-6-sulfate (C6S); assay: ELISA binding to purified GAGs (Example 1); settings: SAV-HRP/TMB absorbance 450 nm, binding at pH 6.4 for 1 hour at 37 °C, FIG. 1
Description: as §3, §4

CHO-K1 (WT) cells = assay: Flow cytometry binding of 680RD-labelled PEG variants to CHO cells (Example 4); format: cell-based; settings: 680RD fluorescence, 30 min at 4 °C, BSA 3% + PEG600 2%; FIGS. 4 and 5
Description: as §1, with “Tumor cell” for “Cell”, “compounds of the present invention coupled with 680RD fluorochrome” for “(51-hS)2KC-Mal-Biotin, (51-hS)2KS-(51-hS)KC-Mal-Biotin, [(51-hS)2KS]2KK(Biotin) and VAR2-Biotin”, “and” for “(and eventually”, “2%” for “2%)”
After the incubation, cells were washed in PBS 1× supplemented with BSA 3%.
After the incubation, cells were washed in PBS 1× supplemented with 3% BSA and then incubated for at least 15 min at 4° C. with DAPI (Thermo Fisher Scientific) in order to exclude dead cells and samples are directly acquired on a flow cytometer. Data generated on the flow cytometer was analyzed using Flowjo™ 10.6.0.

Compound: CC[C@H](C)C(NC(=O)[C@H](CCCNC(=N)N)NC(=O)[C@H](NC(=O)[C@H](Cc1ccccc1)NC(=O)[C@H](Cc1ccc(O)cc1)NC(=O)[C@H](CCCNC(=N)N)NC(C)=O)C(C)C)C(=O)N[C@@H](CCCN)C(=O)N[C@@H](Cc1ccc(O)cc1)C(=O)N[C@@H](CCCNC(=N)N)C(=O)N[C@H](Cc1c[nH]cn1)C(=O)N[C@@H](CO)C(=O)N[C@@H](CCCCNC(=O)[C@H](CO)NC(=O)[C@@H](Cc1c[nH]cn1)NC(=O)[C@H](CCCNC(=N)N)NC(=O)[C@H](Cc1ccc(O)cc1)NC(=O)[C@H](CCCN)NC(=O)[C@@H](NC(=O)[C@H](CCCNC(=N)N)NC(=O)[C@H](NC(=O)[C@H](Cc1ccccc1)NC(=O)[C@H](Cc1ccc(O)cc1)NC(=O)[C@H](CCCNC(=N)N)NC(C)=O)C(C)C)[C@@H](C)CC)C(=O)N[C@@H](CO)C(=O)N[C@@H](CCCCNC(=O)[C@H](CO)NC(=O)[C@@H](Cc1c[nH]cn1)NC(=O)[C@H](CCCNC(=N)N)NC(=O)[C@H](Cc1ccc(O)cc1)NC(=O)[C@H](CCCN)NC(=O)[C@@H](NC(=O)[C@H](CCCNC(=N)N)NC(=O)[C@H](NC(=O)[C@H](Cc1ccccc1)NC(=O)[C@H](Cc1ccc(O)cc1)NC(=O)[C@H](CCCNC(=N)N)NC(C)=O)C(C)C)[C@@H](C)CC)C(=O)N[C@@H](CSC1CC(=O)N(CCCCCC(=O)NNC(=O)CCCCC2SC[C@H]3NC(=O)N[C@@H]23)C1=O)C(N)=O (some centres unmarked) [(51-hS)2KS-(51-hS)KC-Mal-Biotin] (I: Ac-RYF[dV]R[ξIle][Orn]YR[dH]SKSKC(X2)-NH2 / II: Ac-RYF[dV]RI[Orn]YR[dH]S / III: Ac-RYF[dV]RI[Orn]YR[dH]S; amide I:12-II:C, I:14-III:C)
reduction of fluorescence on CHO-pgsA-745 as compared with fluorescence on CHO-K1 cells [1]: 209.9 fold
binding on CHO-K1 cells, times better than (51-hS)2KC-Mal-Biotin [2]: 17.9 ×

Compound: CCc1c2c(nc3ccc(O)cc13)-c1cc3c(c(=O)n1C2)COC(=O)[C@]3(O)CC [SN-38]
activity relative to irinotecan [3]: 1000 times
potency relative to irinotecan in in vitro cytotoxicity assays [3]: 2- to 2000 fold

Compound: I: Ac-RYF[dV]R[ξIle][Orn]YR[dH]SKSKC(X1)-NH2 / II: Ac-RYF[dV]RI[Orn]YR[dH]SKS / III: Ac-RYF[dV]RI[Orn]YR[dH]S / IV: Ac-RYF[dV]RI[Orn]YR[dH]S (amide I:12-III:C, I:14-II:C, II:12-IV:C) [[(51-hS)2KS]2KC-Mal-680RD]
tumor signal of group B relative to other groups (HCT 116 tumor xenograft; group B 20 nmol/mouse i.v. vs 4 nmol/mouse, dependent on dose and on blocking compound): higher tumor signal
tumor to muscle ratio of fluorescence signal (HCT 116 tumor xenograft; groups A and B, all imaging times, FIGS. 12 and 13): almost two-fold
fluorescence signal (Average Radiant Efficiency) in the abdominal region, mainly liver and intestine (HCT 116 tumor xenograft; groups A, B, C (4, 20, 4 + 16 unlabeled nmol/mouse i.v.), imaging 0.5-72 h, independent of dose or blocking compound): strong signal
fluorescence signal (Average Radiant Efficiency) in the tumor (HCT 116 tumor xenograft; tumor of all groups, mainly groups A and B, i.v., imaging 0.5-72 h): presence of a signal

Compound: I: Ac-RYF[dV]R[ξIle][Orn]YR[dH]SKSKC(X3)-NH2 / II: Ac-RYF[dV]RI[Orn]YR[dH]SKS / III: Ac-RYF[dV]RI[Orn]YR[dH]S / IV: Ac-RYF[dV]RI[Orn]YR[dH]S (amide I:12-III:C, I:14-II:C, II:12-IV:C) [[(51-hS)2KS]2KC-Mal-Alexa488]
extent of internalisation in HCT-116 cells ([4]; time course up to 160 min): 85%
time after which 70% is internalised in HCT-116 cells [4]: 40 min

binding affinity to C4S [5]: binds specifically
binding affinity to C6S [6]: binds specifically
Compound: RYFvRIOYR (RYF[dV]RI[Orn]YR) [SEQ ID NO:37, Peptide moiety 51]

Compound: [(51-hS)2K(PEG1)]2KC-Mal-680RD: Four copies of SEQ ID NO:37, structure comprising SEQ ID NO:7 (n is 1), L-Cys conjugated to IRDye 680RD Maleimide (chain 1 RYF[dV]RI[Orn]YR; chain 2 [dH]SK[AEA]KC(IRDye 680RD maleimide); also: four peptide copies on branched Lys scaffold, further copies not in the chains)
binding on CHO-K1 cells compared with [(51-hS)2KS]2KC-Mal-680RD (CHO-K1 (WT) cells): increased binding

Compound: [(51-hS)2K(PEG5)]2KC-Mal-680RD: Four copies of SEQ ID NO:37, structure comprising SEQ ID NO:7 (n is 5), L-Cys conjugated to IRDye 680RD Maleimide (chain 1 RYF[dV]RI[Orn]YR; chain 2 [dH]SK[NH(CH2CH2O)5CH2CO]KC(IRDye 680RD maleimide); also: four peptide copies on branched Lys scaffold, further copies not in the chains)
binding on CHO-K1 cells compared with [(51-hS)2KS]2KC-Mal-680RD (CHO-K1 (WT) cells): increased binding
